# Experimental data: PubChem BioAssay (NCI)
#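 1) Cells in 96-well plates. 2) Compound, 48 h, 5 concentrations. 3) Linear interpolation between surrounding doses. 4) Unreached endpoint = highest concentration. The concentration for 50% growth inhibition is given as GI50. TGI: total growth inhibition.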
# Tested on: UACC-62 melanoma
# Assay: growth of human tumour cells (NCI), 48 h
SMILES,GI50 [µM],TGI [µM]
COc1cc2c3c(n(CCCN4CCC(N)CC4)c(=O)c2cc1OC)-c1cc2c(cc1C3=O)OCO2,1.33,6.34
Cc1c(C(=O)NN)nnn1-c1ccnc2c(C(F)(F)F)cccc12,> 100,> 100
NCCN1CCN(c2nccc(-c3ccc4ccccc4c3)n2)CC1,1.87,3.65
O=C(N/N=C/c1ccc(Cl)cc1Cl)c1ccccc1Nc1cccc(C(F)(F)F)c1,13.3,58.4
Clc1ccc(OCc2nnc3n2N=C(c2ccc(Cl)cc2Cl)CS3)c(Cl)c1,14.1,32.2
CCn1c(-c2nonc2N)nc2ccc(F)cc21,> 25,> 25
O=P(O)(O)C(O)(Cn1ccnc1)P(=O)(O)O,> 65.2,> 100
Cc1ccc(C(=O)CC(Sc2cccc(Cl)c2Cl)c2ccc(Cl)cc2)cc1C (stereo not given),21.2,57.6
CC(=O)[CH-]C(C)=O.CC(=O)[CH-]C(C)=O.N=CC=N.[Sn+2],2.17,5.85
Oc1c(Br)cc(CN(Cc2cc(Br)c(O)c(Br)c2)C2CCCCC2)cc1Br,–,> 100

# Tested on: RXF 393 renal
# Assay: growth of human tumour cells (NCI), 48 h
SMILES,GI50 [nM],TGI [µM]
COc1cc2c3c(n(CCCN4CCC(N)CC4)c(=O)c2cc1OC)-c1cc2c(cc1C3=O)OCO2,940,3.31
Cc1c(C(=O)NN)nnn1-c1ccnc2c(C(F)(F)F)cccc12,> 100000,> 100
NCCN1CCN(c2nccc(-c3ccc4ccccc4c3)n2)CC1,1460,3.07
O=C(N/N=C/c1ccc(Cl)cc1Cl)c1ccccc1Nc1cccc(C(F)(F)F)c1,2240,4.41
Clc1ccc(OCc2nnc3n2N=C(c2ccc(Cl)cc2Cl)CS3)c(Cl)c1,4080,25.4
CCn1c(-c2nonc2N)nc2ccc(F)cc21,> 25000,> 25
O=P(O)(O)C(O)(Cn1ccnc1)P(=O)(O)O,> 70500,> 100
Cc1ccc(C(=O)CC(Sc2cccc(Cl)c2Cl)c2ccc(Cl)cc2)cc1C (stereo not given),25800,56.9
CC(=O)[CH-]C(C)=O.CC(=O)[CH-]C(C)=O.N=CC=N.[Sn+2],1530,3.34
Oc1c(Br)cc(CN(Cc2cc(Br)c(O)c(Br)c2)C2CCCCC2)cc1Br,–,> 100

# Tested on: K-562 leukemia
# Assay: growth of human tumour cells (NCI), 48 h
SMILES,GI50 [µM],TGI [µM]
COc1cc2c3c(n(CCCN4CCC(N)CC4)c(=O)c2cc1OC)-c1cc2c(cc1C3=O)OCO2,0.587,6.91
Cc1c(C(=O)NN)nnn1-c1ccnc2c(C(F)(F)F)cccc12,> 100,> 100
NCCN1CCN(c2nccc(-c3ccc4ccccc4c3)n2)CC1,2.09,4.09
O=C(N/N=C/c1ccc(Cl)cc1Cl)c1ccccc1Nc1cccc(C(F)(F)F)c1,4.86,> 100
Clc1ccc(OCc2nnc3n2N=C(c2ccc(Cl)cc2Cl)CS3)c(Cl)c1,33.4,> 100
CCn1c(-c2nonc2N)nc2ccc(F)cc21,> 25,> 25
O=P(O)(O)C(O)(Cn1ccnc1)P(=O)(O)O,> 100,> 100
Cc1ccc(C(=O)CC(Sc2cccc(Cl)c2Cl)c2ccc(Cl)cc2)cc1C (stereo not given),27.2,> 100
CC(=O)[CH-]C(C)=O.CC(=O)[CH-]C(C)=O.N=CC=N.[Sn+2],2.19,13
Oc1c(Br)cc(CN(Cc2cc(Br)c(O)c(Br)c2)C2CCCCC2)cc1Br,–,> 100

# Tested on: CAKI-1 renal
# Assay: growth of human tumour cells (NCI), 48 h
SMILES,GI50 [µM],TGI [µM]
COc1cc2c3c(n(CCCN4CCC(N)CC4)c(=O)c2cc1OC)-c1cc2c(cc1C3=O)OCO2,0.311,2.99
Cc1c(C(=O)NN)nnn1-c1ccnc2c(C(F)(F)F)cccc12,> 100,> 100
NCCN1CCN(c2nccc(-c3ccc4ccccc4c3)n2)CC1,1.55,2.95
O=C(N/N=C/c1ccc(Cl)cc1Cl)c1ccccc1Nc1cccc(C(F)(F)F)c1,3.45,14.4
Clc1ccc(OCc2nnc3n2N=C(c2ccc(Cl)cc2Cl)CS3)c(Cl)c1,26.6,83
CCn1c(-c2nonc2N)nc2ccc(F)cc21,> 25,> 25
O=P(O)(O)C(O)(Cn1ccnc1)P(=O)(O)O,> 52.9,> 100
Cc1ccc(C(=O)CC(Sc2cccc(Cl)c2Cl)c2ccc(Cl)cc2)cc1C (stereo not given),21.6,45.8
CC(=O)[CH-]C(C)=O.CC(=O)[CH-]C(C)=O.N=CC=N.[Sn+2],2.54,7.23
Oc1c(Br)cc(CN(Cc2cc(Br)c(O)c(Br)c2)C2CCCCC2)cc1Br,–,> 100

# Tested on: TK-10 renal
# Assay: growth of human tumour cells (NCI), 48 h
SMILES,GI50 [µM],TGI [µM]
COc1cc2c3c(n(CCCN4CCC(N)CC4)c(=O)c2cc1OC)-c1cc2c(cc1C3=O)OCO2,0.774,4.36
Cc1c(C(=O)NN)nnn1-c1ccnc2c(C(F)(F)F)cccc12,> 100,> 100
NCCN1CCN(c2nccc(-c3ccc4ccccc4c3)n2)CC1,1.78,3.27
O=C(N/N=C/c1ccc(Cl)cc1Cl)c1ccccc1Nc1cccc(C(F)(F)F)c1,2.84,9.22
Clc1ccc(OCc2nnc3n2N=C(c2ccc(Cl)cc2Cl)CS3)c(Cl)c1,25.1,> 100
CCn1c(-c2nonc2N)nc2ccc(F)cc21,> 25,> 25
O=P(O)(O)C(O)(Cn1ccnc1)P(=O)(O)O,> 36.2,> 100
Cc1ccc(C(=O)CC(Sc2cccc(Cl)c2Cl)c2ccc(Cl)cc2)cc1C (stereo not given),17.2,35
CC(=O)[CH-]C(C)=O.CC(=O)[CH-]C(C)=O.N=CC=N.[Sn+2],4.48,10.7
Oc1c(Br)cc(CN(Cc2cc(Br)c(O)c(Br)c2)C2CCCCC2)cc1Br,–,> 100

# Tested on: HL-60(TB) leukemia
# Assay: growth of human tumour cells (NCI), 48 h
SMILES,GI50 [µM],TGI [µM]
COc1cc2c3c(n(CCCN4CCC(N)CC4)c(=O)c2cc1OC)-c1cc2c(cc1C3=O)OCO2,4.04,7.87
Cc1c(C(=O)NN)nnn1-c1ccnc2c(C(F)(F)F)cccc12,> 100,> 100
NCCN1CCN(c2nccc(-c3ccc4ccccc4c3)n2)CC1,2.23,5.76
O=C(N/N=C/c1ccc(Cl)cc1Cl)c1ccccc1Nc1cccc(C(F)(F)F)c1,79,> 100
Clc1ccc(OCc2nnc3n2N=C(c2ccc(Cl)cc2Cl)CS3)c(Cl)c1,35.6,> 100
CCn1c(-c2nonc2N)nc2ccc(F)cc21,> 25,> 25
O=P(O)(O)C(O)(Cn1ccnc1)P(=O)(O)O,> 71.2,> 100
Cc1ccc(C(=O)CC(Sc2cccc(Cl)c2Cl)c2ccc(Cl)cc2)cc1C (stereo not given),30.6,> 100
CC(=O)[CH-]C(C)=O.CC(=O)[CH-]C(C)=O.N=CC=N.[Sn+2],2.09,15.3
Oc1c(Br)cc(CN(Cc2cc(Br)c(O)c(Br)c2)C2CCCCC2)cc1Br,–,> 100

# Tested on: NCI-H226 lung
# Assay: growth of human tumour cells (NCI), 48 h
SMILES,GI50 [µM],TGI [µM]
COc1cc2c3c(n(CCCN4CCC(N)CC4)c(=O)c2cc1OC)-c1cc2c(cc1C3=O)OCO2,0.757,2.95
Cc1c(C(=O)NN)nnn1-c1ccnc2c(C(F)(F)F)cccc12,> 100,> 100
NCCN1CCN(c2nccc(-c3ccc4ccccc4c3)n2)CC1,2.03,5.66
O=C(N/N=C/c1ccc(Cl)cc1Cl)c1ccccc1Nc1cccc(C(F)(F)F)c1,3.67,43.5
Clc1ccc(OCc2nnc3n2N=C(c2ccc(Cl)cc2Cl)CS3)c(Cl)c1,17.6,43.2
CCn1c(-c2nonc2N)nc2ccc(F)cc21,> 25,> 25
O=P(O)(O)C(O)(Cn1ccnc1)P(=O)(O)O,> 75,> 100
Cc1ccc(C(=O)CC(Sc2cccc(Cl)c2Cl)c2ccc(Cl)cc2)cc1C (stereo not given),20.5,37.4
CC(=O)[CH-]C(C)=O.CC(=O)[CH-]C(C)=O.N=CC=N.[Sn+2],9.9,23
Oc1c(Br)cc(CN(Cc2cc(Br)c(O)c(Br)c2)C2CCCCC2)cc1Br,–,> 100

# Tested on: MOLT-4 leukemia
# Assay: growth of human tumour cells (NCI), 48 h
SMILES,GI50 [µM],TGI [µM]
COc1cc2c3c(n(CCCN4CCC(N)CC4)c(=O)c2cc1OC)-c1cc2c(cc1C3=O)OCO2,0.0456,1.89
Cc1c(C(=O)NN)nnn1-c1ccnc2c(C(F)(F)F)cccc12,> 100,> 100
NCCN1CCN(c2nccc(-c3ccc4ccccc4c3)n2)CC1,2.05,4.44
O=C(N/N=C/c1ccc(Cl)cc1Cl)c1ccccc1Nc1cccc(C(F)(F)F)c1,4.22,40
Clc1ccc(OCc2nnc3n2N=C(c2ccc(Cl)cc2Cl)CS3)c(Cl)c1,22.8,> 100
CCn1c(-c2nonc2N)nc2ccc(F)cc21,> 25,> 25
O=P(O)(O)C(O)(Cn1ccnc1)P(=O)(O)O,> 100,> 100
Cc1ccc(C(=O)CC(Sc2cccc(Cl)c2Cl)c2ccc(Cl)cc2)cc1C (stereo not given),33,> 100
CC(=O)[CH-]C(C)=O.CC(=O)[CH-]C(C)=O.N=CC=N.[Sn+2],2.03,7.47
Oc1c(Br)cc(CN(Cc2cc(Br)c(O)c(Br)c2)C2CCCCC2)cc1Br,–,> 100

# Tested on: SK-MEL-5 melanoma
# Assay: growth of human tumour cells (NCI), 48 h
SMILES,GI50 [µM],TGI [µM]
COc1cc2c3c(n(CCCN4CCC(N)CC4)c(=O)c2cc1OC)-c1cc2c(cc1C3=O)OCO2,1.84,8.47
Cc1c(C(=O)NN)nnn1-c1ccnc2c(C(F)(F)F)cccc12,> 100,> 100
NCCN1CCN(c2nccc(-c3ccc4ccccc4c3)n2)CC1,1.67,3.05
O=C(N/N=C/c1ccc(Cl)cc1Cl)c1ccccc1Nc1cccc(C(F)(F)F)c1,26.5,> 100
Clc1ccc(OCc2nnc3n2N=C(c2ccc(Cl)cc2Cl)CS3)c(Cl)c1,15.5,33
CCn1c(-c2nonc2N)nc2ccc(F)cc21,> 25,> 25
O=P(O)(O)C(O)(Cn1ccnc1)P(=O)(O)O,> 43,> 78
Cc1ccc(C(=O)CC(Sc2cccc(Cl)c2Cl)c2ccc(Cl)cc2)cc1C (stereo not given),16.6,33
CC(=O)[CH-]C(C)=O.CC(=O)[CH-]C(C)=O.N=CC=N.[Sn+2],5.46,16.9
Oc1c(Br)cc(CN(Cc2cc(Br)c(O)c(Br)c2)C2CCCCC2)cc1Br,–,> 100

# Tested on: MDA-MB-435
# Assay: growth of human tumour cells (NCI), 48 h
SMILES,GI50 [µM],TGI [µM]
COc1cc2c3c(n(CCCN4CCC(N)CC4)c(=O)c2cc1OC)-c1cc2c(cc1C3=O)OCO2,1.77,8.47
Cc1c(C(=O)NN)nnn1-c1ccnc2c(C(F)(F)F)cccc12,> 100,> 100
NCCN1CCN(c2nccc(-c3ccc4ccccc4c3)n2)CC1,1.8,3.25
O=C(N/N=C/c1ccc(Cl)cc1Cl)c1ccccc1Nc1cccc(C(F)(F)F)c1,22.3,> 100
Clc1ccc(OCc2nnc3n2N=C(c2ccc(Cl)cc2Cl)CS3)c(Cl)c1,24.3,> 100
CCn1c(-c2nonc2N)nc2ccc(F)cc21,> 25,> 25
O=P(O)(O)C(O)(Cn1ccnc1)P(=O)(O)O,> 100,> 100
Cc1ccc(C(=O)CC(Sc2cccc(Cl)c2Cl)c2ccc(Cl)cc2)cc1C (stereo not given),20,50
CC(=O)[CH-]C(C)=O.CC(=O)[CH-]C(C)=O.N=CC=N.[Sn+2],2.59,7.43
Oc1c(Br)cc(CN(Cc2cc(Br)c(O)c(Br)c2)C2CCCCC2)cc1Br,–,> 100
